Nine compounds from patent US6043242A, “Imidazopyridazines” (Byk Gulden Lomberg Chemische Fabrik GmbH, priority 1996, dated 2000) can be followed below.

Structures are written as SMILES. Converted amounts (≈) assume the structure as drawn. Structures can show the parent of a compound that is named as a salt.

Test [1] concerns Helicobacter fells. Briefly: in vivo activity against Helicobacter fells in the mouse (elimination rate). Particulars: po, 96 h, administered orally at 3×50 mg/kg over the course of 4 days. How it is done: With respect to their in vivo activity against Helicobacter fells in the mouse, the compounds of the formula I were investigated following the methodology described by E. Dick-Hegedus and A. Lee (Scand. J. Gastroenterol. 1991, 26, 909-915). The substances were administered orally at 3×50 mg/kg over the course of 4 days. The elimination rates listed in Table A below resulted here for the compounds investigated: […]

In test [2] the test system is Helicobacter pylori. The test is described as follows: activity against Helicobacter pylori (MIC50), Columbia agar, growth period of 4 days. The conditions noted are these: 96 h, approx. MIC 50 values, Columbia agar (Oxoid). The format is cell-based. The text has this:
The compounds of the formula I were investigated with respect to their activity against Helicobacter pylori following the methodology described by Tomoyuki Iwahi et al. (Antimicrobial Agents and Chemotherapy, 1991, 490-496) using Columbia agar (Oxoid) and with a growth period of 4 days. The approx. MIC 50 values listed in Table A below resulted here for the compounds investigated (the stated numbers of the compounds agree with the example numbers in the description).

For orientation: MIC50 means an inhibitory concentration at the 50% level, which refers to growth in some studies and to a panel of isolates in others. Take `Cc1c(SCCCSc2ccc3ncc([N+](=O)[O-])n3n2)ccnc1CO` [Compound 1, {3-Methyl-4-[3-(3-nitroimidazo[1,2-b]pyridazin-6-ylsulfanyl)propylsulfanyl]pyridin-2-yl}methanol]: the responders at 50 mg/kg in test [1] was 100%. For the same compound, the MIC50 in test [2] worked out at 0.05 µg/mL (≈ 0.128 µM).

Compound `Cc1c(SCCCSc2ccc3ncc([N+](=O)[O-])n3n2)ccnc1CSc1ncccn1` [Compound 4, 6-{3-[3-Methyl-2-(pyrimidin-2-ylsulfanylmethyl)-pyridin-4-ylsulfanyl]propyisulfanyl)3-nitro-imidazo[1,2-b]pyridazine] came in with a responders at 50 mg/kg in test [1] of 100%. This compound showed an MIC50 in test [2] of 0.1 µg/mL (≈ 0.206 µM).

In test [1], `COCCOCCSCc1nccc(SCCCSc2ccc3ncc([N+](=O)[O-])n3n2)c1C` [Compound 9, 6-(3-}2-[2-(2-Methoxyethoxy)ethylsulfanylmethyl]-3-methylpyridin-4-ylsulfanyl}-propylsulfanyl)-3-nitroimidazo[1,2-b]pyridazine fumarate] showed a responders at 50 mg/kg of 100%. In test [2], the MIC50 was 0.1 µg/mL.

On to `Cc1c(OCCCOc2ccc3ncc([N+](=O)[O-])n3n2)cc[n+]([O-])c1C` [Compound 13, 6-[3-(2,3-Dimethyl-1-oxypyridin-4-yloxy)propoxy]-3-nitroimidazo[1,2-b]pyridazine], for which the responders at 50 mg/kg in test [1] was 100%. Besides, in test [2], the MIC50 stood at 0.5 µg/mL (≈ 1.39 µM).

In test [1], `Cc1c(OCCCSc2ccc3ncc([N+](=O)[O-])n3n2)ccnc1CO` [Compound 15, {3-Methyl-4-[3-(3-nitroimidazo[1,2-b]pyridazin-6-ylsulfanyl)propoxy]pyridin-2-yl}-methanol] returned a responders at 50 mg/kg of 100%. Moreover, the MIC50 in test [2] is 0.05 µg/mL (≈ 0.133 µM).

Consider `CN(CCSc1ccc2ncc([N+](=O)[O-])n2n1)c1ccnc(CSc2nc3ccccc3[nH]2)c1Cl` [Compound 17], for which the responders at 50 mg/kg in test [1] came to 100%. Further, the MIC50 in test [2] stood at 0.1 µg/mL (≈ 0.19 µM).

As for `CN(CCSc1ccc2ncc([N+](=O)[O-])n2n1)c1ccnc(CSc2ncccn2)c1Cl` [Compound 18], the responders at 50 mg/kg in test [1] amounted to 100%. In addition, in test [2], the MIC50 was 0.1 µg/mL (≈ 0.205 µM).

`Cc1ccnc(SCc2nccc(SCCCSc3ccc4ncc([N+](=O)[O-])n4n3)c2C)n1` [Compound 25, 6-{3-[3-Methyl-2-(4-methyl-pyrimidin-2-ylsulfanylmethyl)-pyridin-4-ylsulfanyl]-propylsulfanyl}-3-nitroimidazo[1,2-b]pyridazine] registered a responders at 50 mg/kg in test [1] of 100%. The compound further had an MIC50 in test [2] of 0.05 µg/mL (≈ 0.1 µM).

In the case of `CN(CCOc1ccc2ncc([N+](=O)[O-])n2n1)c1ccnc(CSc2nc3ccccc3[nH]2)c1Cl.Cl` [Compound 27, [2-(1H-benzimidazol-2-ylsulfanylmethyl)-3-chloropyridin-4-yl]-methyl-[2-(3-nitroimidazo[1,2-b]pyridazin-6-yloxy)-ethyl]amine hydrochloride], in test [1], the responders at 50 mg/kg worked out at 100%. The compound further came in with an MIC50 in test [2] of 0.1 µg/mL.
